Measurements reported in ChEMBL document CHEMBL1201862, “PubChem BioAssay data set” (2004).
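96-well plates; 48 h exposure; 5 concentrations. Endpoints by linear interpolation between flanking doses. Not reached: highest tested concentration assigned. At the GI50, growth is halved.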 The source made the active and inactive calls. No stated cut-off is given here; in the data, active = GI50 up to about 1.1 µM and inactive = higher.

Legend:
Test in all cases: inhibition of tumour cell growth, NCI panel, 48 h
786-0 = test system: 786-0
A549 = test system: A549
CAKI-1 = test system: CAKI-1
COLO 205 = test system: COLO 205
EKVX = test system: EKVX
HCC 2998 = test system: HCC 2998
HCT-116 = test system: HCT-116
HL-60 = test system: HL-60
HOP-62 = test system: HOP-62
KM12 = test system: KM12
MOLT-4 = test system: MOLT-4
Malme-3M = test system: Malme-3M
OVCAR-3 = test system: OVCAR-3
OVCAR-4 = test system: OVCAR-4
OVCAR-5 = test system: OVCAR-5
OVCAR-8 = test system: OVCAR-8
SNB-19 = test system: SNB-19
SW-620 = test system: SW-620
TK-10 = test system: TK-10
UO-31 = test system: UO-31

Compound | GI50 (786-0) | GI50 (A549) | GI50 (CAKI-1) | GI50 (COLO 205) | GI50 (EKVX) | GI50 (HCC 2998) | GI50 (HCT-116) | GI50 (HL-60) | GI50 (HOP-62) | GI50 (KM12) | GI50 (MOLT-4) | GI50 (Malme-3M) | GI50 (OVCAR-3) | GI50 (OVCAR-4) | GI50 (OVCAR-5) | GI50 (OVCAR-8) | GI50 (SNB-19) | GI50 (SW-620) | GI50 (TK-10) | GI50 (UO-31)
O=C(CC1C(=O)Nc2ccccc2[S+]1[O-])Nc1ccccc1 (stereo not given) | 40.8 µM (inactive) | > 100 µM (inactive) | > 100 µM (inactive) | > 100 µM (inactive) | > 100 µM (inactive) | > 100 µM (inactive) | > 100 µM (inactive) | > 100 µM (inactive) | > 100 µM (inactive) | > 100 µM (inactive) | > 100 µM (inactive) | > 100 µM (inactive) | > 100 µM (inactive) | > 100 µM (inactive) | > 100 µM (inactive) | 36.4 µM (inactive) | > 100 µM (inactive) | > 100 µM (inactive) | > 100 µM (inactive) | 37.5 µM (inactive)
CO[C@H]1C[C@H](O[C@H]2CC[C@@]3(C)[C@H](CC[C@@H]4[C@@H]3CC[C@]3(C)[C@@H](C5=CC(=O)OC5)CC[C@]43O)C2)O[C@H](C)[C@H]1O | < 0.01 µM (active) | < 0.01 µM (active) | < 0.01 µM (active) | 0.0695 µM (active) | < 0.01 µM (active) | 0.015 µM (active) | < 0.01 µM (active) | < 0.01 µM (active) | < 0.01 µM (active) | < 0.011 µM (active) | < 0.01 µM (active) | < 0.01 µM (active) | < 0.01 µM (active) | < 0.01 µM (active) | < 0.0149 µM (active) | < 0.01 µM (active) | 0.0158 µM (active) | < 0.01 µM (active) | < 0.0246 µM (active) | < 0.01 µM (active)
O=S(=O)(O)c1cc(/N=N/c2c(O)ccc3ccccc23)cc2c(S(=O)(=O)O)cccc12 | > 100 µM (inactive) | > 100 µM (inactive) | > 100 µM (inactive) | > 100 µM (inactive) | > 100 µM (inactive) | > 100 µM (inactive) | > 100 µM (inactive) | > 100 µM (inactive) | > 100 µM (inactive) | > 100 µM (inactive) | > 100 µM (inactive) | 33.7 µM (inactive) | > 100 µM (inactive) | > 100 µM (inactive) | > 100 µM (inactive) | > 100 µM (inactive) | > 100 µM (inactive) | > 100 µM (inactive) | > 100 µM (inactive) | > 100 µM (inactive)
O=C1/C(=C\c2cccc(Oc3ccccc3)c2)SC(c2ccccc2)N1c1cc(Cl)ccc1Cl (stereo not given) | 27 µM (inactive) | 51.5 µM (inactive) | 69.2 µM (inactive) | 53.5 µM (inactive) | 38.1 µM (inactive) | 37.2 µM (inactive) | 17.2 µM (inactive) | 15.1 µM (inactive) | 56.5 µM (inactive) | 18.2 µM (inactive) | 10.4 µM (inactive) | 28.2 µM (inactive) | 24.8 µM (inactive) | 51.2 µM (inactive) | 59 µM (inactive) | 21.3 µM (inactive) | 43.4 µM (inactive) | 19 µM (inactive) | 47 µM (inactive) | 37.2 µM (inactive)
COc1ccc(C(SCCO)(c2ccccc2)c2ccc(OC)cc2)cc1 | 14.6 µM (inactive) | 11 µM (inactive) | 21 µM (inactive) | 17.9 µM (inactive) | 13.2 µM (inactive) | 5.4 µM (inactive) | 8.41 µM (inactive) | 21.3 µM (inactive) | 15.8 µM (inactive) | 5.38 µM (inactive) | 12.4 µM (inactive) | 16.4 µM (inactive) | 16.3 µM (inactive) | 15.8 µM (inactive) | 15.2 µM (inactive) | 19.2 µM (inactive) | 8.26 µM (inactive) | 15.3 µM (inactive) | 18.1 µM (inactive) | 17.6 µM (inactive)
